According to patent US20080171783A1, “COMPOSITIONS AND METHODS FOR TREATING HYPERPROLIFERATIVE DISEASE” (Migenix Inc., priority 2006, published 2008):

Columns and labels:
human polymerase alpha = target: T1, human polymerase alpha (Homo sapiens, UniProt P09884); test: Homotemplate enzymatic assay, polymerase alpha; format: biochemical; conditions: four concentrations, homotemplate format
T1 construct: purchased Replizyme Ltd (Heslington, York, UK)
T1 sequence (P09884 1-1462): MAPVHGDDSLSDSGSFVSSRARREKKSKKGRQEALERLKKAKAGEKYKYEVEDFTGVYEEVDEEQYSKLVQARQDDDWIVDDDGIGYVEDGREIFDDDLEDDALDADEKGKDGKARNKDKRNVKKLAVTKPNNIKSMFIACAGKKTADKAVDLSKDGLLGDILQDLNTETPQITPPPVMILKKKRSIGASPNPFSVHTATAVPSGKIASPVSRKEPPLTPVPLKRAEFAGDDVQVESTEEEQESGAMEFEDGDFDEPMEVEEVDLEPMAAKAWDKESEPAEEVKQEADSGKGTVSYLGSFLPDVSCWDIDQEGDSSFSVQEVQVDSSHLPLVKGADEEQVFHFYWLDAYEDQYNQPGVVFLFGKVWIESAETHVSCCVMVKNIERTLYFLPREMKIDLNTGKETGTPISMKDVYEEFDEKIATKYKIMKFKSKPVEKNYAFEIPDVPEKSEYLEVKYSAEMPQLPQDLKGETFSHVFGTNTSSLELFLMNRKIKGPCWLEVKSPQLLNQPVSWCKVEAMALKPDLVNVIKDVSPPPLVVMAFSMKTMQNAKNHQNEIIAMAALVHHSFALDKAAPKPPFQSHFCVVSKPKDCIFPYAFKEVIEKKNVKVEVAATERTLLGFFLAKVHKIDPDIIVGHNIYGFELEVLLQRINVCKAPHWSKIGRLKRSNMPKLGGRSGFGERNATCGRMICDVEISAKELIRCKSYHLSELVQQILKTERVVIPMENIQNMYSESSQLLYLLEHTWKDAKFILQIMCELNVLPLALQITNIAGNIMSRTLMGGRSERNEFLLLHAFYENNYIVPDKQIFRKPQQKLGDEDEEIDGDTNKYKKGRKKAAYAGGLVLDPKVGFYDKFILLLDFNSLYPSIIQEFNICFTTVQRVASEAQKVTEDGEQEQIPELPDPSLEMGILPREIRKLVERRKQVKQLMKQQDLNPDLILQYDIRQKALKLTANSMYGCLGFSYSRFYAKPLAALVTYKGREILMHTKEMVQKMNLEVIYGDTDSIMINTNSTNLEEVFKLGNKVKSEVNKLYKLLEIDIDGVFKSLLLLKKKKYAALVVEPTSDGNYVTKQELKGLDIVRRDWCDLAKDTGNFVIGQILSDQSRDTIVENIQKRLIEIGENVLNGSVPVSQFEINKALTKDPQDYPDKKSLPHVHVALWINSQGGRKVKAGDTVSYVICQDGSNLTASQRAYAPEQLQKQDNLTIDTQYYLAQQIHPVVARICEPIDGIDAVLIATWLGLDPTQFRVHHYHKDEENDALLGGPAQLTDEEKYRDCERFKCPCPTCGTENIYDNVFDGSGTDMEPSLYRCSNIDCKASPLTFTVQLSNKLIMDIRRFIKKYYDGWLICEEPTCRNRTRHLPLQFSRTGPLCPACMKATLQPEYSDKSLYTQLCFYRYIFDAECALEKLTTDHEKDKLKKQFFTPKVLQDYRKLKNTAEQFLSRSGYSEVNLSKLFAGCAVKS
Description: (§1) To test for selectivity, an enzymatic assay of activity in human polymerase alpha and human polymerase gamma was performed using a homotemplate assay format (Replizyme Ltd., Heslington, York, UK). The IC50 was measured by testing four different concentrations of a selected compound as compared to an untreated control.

human polymerase gamma = target: T2, human polymerase gamma (Homo sapiens, UniProt P54098); test: Homotemplate enzymatic assay, polymerase gamma; format: biochemical; conditions: four concentrations, homotemplate format
T2 construct: purchased Replizyme Ltd., Heslington, York, UK
T2 sequence (P54098 1-1239): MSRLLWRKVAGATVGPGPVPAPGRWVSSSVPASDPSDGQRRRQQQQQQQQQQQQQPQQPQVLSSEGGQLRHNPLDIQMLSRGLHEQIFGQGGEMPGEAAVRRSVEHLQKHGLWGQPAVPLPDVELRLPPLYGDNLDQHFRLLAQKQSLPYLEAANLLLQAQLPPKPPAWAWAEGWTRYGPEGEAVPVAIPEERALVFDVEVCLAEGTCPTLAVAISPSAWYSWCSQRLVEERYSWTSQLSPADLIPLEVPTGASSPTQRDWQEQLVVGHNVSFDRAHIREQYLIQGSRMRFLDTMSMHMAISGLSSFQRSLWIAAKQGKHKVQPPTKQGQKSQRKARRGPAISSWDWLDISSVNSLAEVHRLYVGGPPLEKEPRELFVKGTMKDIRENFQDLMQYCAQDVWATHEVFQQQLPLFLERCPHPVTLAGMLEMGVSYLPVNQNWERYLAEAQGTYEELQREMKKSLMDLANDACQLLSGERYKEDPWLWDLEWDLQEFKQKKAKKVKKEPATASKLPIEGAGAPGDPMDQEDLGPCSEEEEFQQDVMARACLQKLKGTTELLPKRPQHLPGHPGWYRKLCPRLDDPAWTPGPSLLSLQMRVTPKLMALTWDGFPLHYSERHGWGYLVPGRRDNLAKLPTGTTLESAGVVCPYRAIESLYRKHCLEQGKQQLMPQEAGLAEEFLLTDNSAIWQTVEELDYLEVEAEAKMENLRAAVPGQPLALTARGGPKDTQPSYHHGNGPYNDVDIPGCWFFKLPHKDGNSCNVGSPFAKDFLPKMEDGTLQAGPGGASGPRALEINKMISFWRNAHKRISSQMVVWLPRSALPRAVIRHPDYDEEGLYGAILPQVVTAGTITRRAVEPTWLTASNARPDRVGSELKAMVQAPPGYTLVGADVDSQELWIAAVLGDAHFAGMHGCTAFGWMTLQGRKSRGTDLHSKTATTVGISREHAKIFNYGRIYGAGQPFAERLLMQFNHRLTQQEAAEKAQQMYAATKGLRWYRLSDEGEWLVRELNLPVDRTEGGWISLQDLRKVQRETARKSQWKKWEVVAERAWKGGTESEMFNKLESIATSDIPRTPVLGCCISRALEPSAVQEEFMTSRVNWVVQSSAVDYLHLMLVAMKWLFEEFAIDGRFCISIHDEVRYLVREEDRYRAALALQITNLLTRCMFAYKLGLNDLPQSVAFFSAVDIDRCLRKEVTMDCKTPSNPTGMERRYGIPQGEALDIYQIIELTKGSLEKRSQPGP
Description: as §1

T-47D = test: NCI In Vitro Cell Line Screening (SRB); format: cell-based, human; conditions: Breast Cancer, 48 h
SN12C = test: NCI In Vitro Cell Line Screening (SRB); format: cell-based, human; conditions: Renal Cancer, 48 h; for GI50 / CC50: Homo sapiens; for CC50: read-out: LC50 (the source's name)
NCI-H322M = test: NCI In Vitro Cell Line Screening (SRB); format: cell-based, human; conditions: Non-Small Cell Lung Cancer, 48 h; for GI50 / CC50: Homo sapiens; for CC50: read-out: LC50 (the source's name)

Compound	IC50 (human polymerase alpha) [µM]	IC50 (human polymerase gamma) [µM]	TGI (T-47D) [µM]	GI50 (T-47D; Homo sapiens, T47D) [µM]	GI50 (SN12C) [µM]	CC50 (SN12C) [µM]	TGI (SN12C) [µM]	GI50 (NCI-H322M) [µM]	CC50 (NCI-H322M) [µM]	TGI (NCI-H322M) [µM]	CC50 (T-47D; Homo sapiens, T47D, read-out: LC50 (the source's name)) [µM]
CC(C)(C)c1ccc(NC(=O)[C@H](CCCCN)NC(=O)OCC2c3ccccc3-c3ccccc32)cc1 [Compound 105, (S)-[5-AMINO-1-(4-TERT-BUTYL-PHENYLCARBAMOYL)-PENTYL]-CARBAMIC ACID 9H-FLUOREN-9-YLMETHYL ESTER]	–	–	3.08	1.45	13.8	62.9	29.5	13.5	69.9	30.7	–
Cc1ccc(NC(=O)[C@@H](CCCCN)NC(=O)Nc2ccc3c(c2)Cc2ccccc2-3)cc1 [Compound 173, (R)-6-AMINO-2-[3-(9H-FLUOREN-2-YL)-UREIDO]-HEXANOIC ACID P-TOLYLAMIDE]	< 4	16	3.78	1.7	1.17	5	2.41	2.54	39.8	12.0	8.41
Cc1cc2cc(NC(=O)[C@H](CCCNC(=O)CN)NC(=O)Nc3ccc4c(c3)Cc3ccccc3-4)ccc2[nH]1 [Compound 297, (S)-5-(2-AMINO-ACETYLAMINO)-2-[3-(9H-FLUOREN-2-YL)-UREIDO]-PENTANOIC ACID (2-METHYL-1H-INDOL-5-YL)-AMIDE]	< 4	13	–	–	–	–	–	–	–	–	–

Second part, led by results:

IC50 (human polymerase alpha) [µM]	IC50 (human polymerase gamma) [µM]	Compound	TGI (T-47D) [µM]	GI50 (T-47D; Homo sapiens, T47D) [µM]	GI50 (SN12C) [µM]	CC50 (SN12C) [µM]	TGI (SN12C) [µM]	GI50 (NCI-H322M) [µM]	CC50 (NCI-H322M) [µM]	TGI (NCI-H322M) [µM]	CC50 (T-47D; Homo sapiens, T47D, read-out: LC50 (the source's name)) [µM]
< 4	27	Cc1ccc(NC(=O)[C@H](CCCCN)NC(=O)Nc2ccc(OCc3ccccc3)cc2)cc1 [Compound 2, (S)-6-AMINO-2-[3-(4-BENZYLOXY-PHENYL)-UREIDO]-HEXANOIC ACID P-TOLYLAMIDE]	–	–	–	–	–	–	–	–	–
~4	32	COC(=O)c1ccc(COc2ccc(NC(=O)N[C@@H](CCCCN)C(=O)Nc3ccc(C)cc3)cc2)cc1 [Compound 199, (S)-4-{4-[3-(5-AMINO-1-P-TOLYLCARBAMOYL-PENTYL)-UREIDO]-PHENOXYMETHYL}-BENZOIC ACID METHYL ESTER]	–	–	–	–	–	–	–	–	–
